Consider two molecules from ChEMBL document CHEMBL5725973, “Pyrrolidine orexin receptor antagonists” (2018).

pIC50: −log10 of the molar value.

Assay [1] addresses T1, Orexin/Hypocretin receptor type 1 (Homo sapiens, UniProt O43613).
T1 sequence (O43613 whole entry): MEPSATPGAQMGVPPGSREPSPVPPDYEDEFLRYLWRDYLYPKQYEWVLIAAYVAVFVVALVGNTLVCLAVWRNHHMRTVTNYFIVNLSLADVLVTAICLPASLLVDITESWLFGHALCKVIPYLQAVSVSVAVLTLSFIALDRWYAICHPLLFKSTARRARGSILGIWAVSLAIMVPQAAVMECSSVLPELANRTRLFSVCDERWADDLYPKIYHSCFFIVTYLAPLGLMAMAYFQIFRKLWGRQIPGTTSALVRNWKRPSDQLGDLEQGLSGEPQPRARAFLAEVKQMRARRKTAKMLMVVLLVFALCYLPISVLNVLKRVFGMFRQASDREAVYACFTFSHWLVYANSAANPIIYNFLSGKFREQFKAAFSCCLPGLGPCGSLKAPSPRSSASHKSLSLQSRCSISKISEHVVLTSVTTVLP
In words: (§1) FLIPR Ca2+ Flux Assay: All reagents were from GIBCO-Invitrogen Corp. The seeded plates are incubated overnight at 37° C. and 5% CO2. Ala-6,12 human orexin-A as the agonist is prepared as a 1 mM stock solution in 1% bovine serum albumin (BSA) and diluted in assay buffer (HBSS containing 20 mM HEPES, 0.1% BSA and 2.5 mM probenecid, pH7.4) for use in the assay at a final concentration of 70pM. Test compounds are prepared as 10 mM stock solution in DMSO, then diluted in 384-well plates, first in DMSO, then assay buffer. On the day of the assay, cells are washed 3 times with 100 μl assay buffer and then incubated for 60 min (37° C., 5% CO2) in 60 μl assay buffer containing 1 μM Fluo-4AM ester, 0.02% pluronic acid, and 1% BSA. The dye loading solution is then aspirated and cells are washed 3 times with 100 μl assay buffer. 30 μl of that same buffer is left in each well. Within the Fluorescent Imaging Plate Reader (FLIPR, Molecular Devices), test compounds are added to the plate in a volume of 25 μl, incubated for 5 min and finally 25 μl of agonist is added. Fluorescence is measured for each well at 1 second intervals for 5 minutes and the height of each fluorescence peak is compared to the height of the fluorescence peak induced by 70 pM Ala-6,12 orexin-A with buffer in place of antagonist. For each antagonist, IC50 value (the concentration of compound needed to inhibit 50% of the agonist response) is determined. Alternatively, compound potency can be assessed by a radioligand binding assay (described in Bergman et. al. Bioorg. Med. Chem. Lett. 2008, 18, 1425-1430) in which the inhibition constant (Ki) is determined in membranes prepared from CHO cells expressing either the OX1 or OX2 receptor. The intrinsic orexin receptor antagonist activity of a compound which may be used in the present invention may be determined by these assays.

Assay [2] has as its target T2, Orexin receptor type 2 (Homo sapiens, UniProt O43614).
T2 sequence (O43614 whole entry): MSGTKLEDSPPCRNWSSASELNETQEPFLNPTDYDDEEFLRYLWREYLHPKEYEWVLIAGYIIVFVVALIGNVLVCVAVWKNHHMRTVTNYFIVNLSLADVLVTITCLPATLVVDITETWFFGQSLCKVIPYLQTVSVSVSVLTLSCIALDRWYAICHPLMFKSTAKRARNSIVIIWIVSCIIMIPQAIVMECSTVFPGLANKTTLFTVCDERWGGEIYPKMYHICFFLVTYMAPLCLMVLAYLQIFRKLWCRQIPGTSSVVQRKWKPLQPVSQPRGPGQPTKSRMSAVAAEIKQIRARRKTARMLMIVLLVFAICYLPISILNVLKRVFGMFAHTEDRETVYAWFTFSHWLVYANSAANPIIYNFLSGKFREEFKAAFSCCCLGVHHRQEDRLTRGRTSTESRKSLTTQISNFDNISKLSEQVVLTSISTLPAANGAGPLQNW
The description is as §1.

On to `C[C@@H]1C[C@@H](Nc2cc(Br)ccn2)CN1C(=O)c1ccccc1-n1nccn1`, for which the negative logarithm of the IC50 (pIC50) was 5.94 in assay [1] and 7.95 in assay [2].
For `C[C@@H]1C[C@@H](Nc2cc(OCC(F)F)ccn2)CN1C(=O)c1ccccc1C1(C#N)CCC1`, the results for the pIC50 in assay [1] and in assay [2] were 5.39 and 7.23, respectively.
